Numbers after ± are expanded uncertainties.
Assay: activity coefficient (dimensionless); of the first substance listed, at infinite dilution; xn = mol fraction of the nth substance listed
Conditions: Liquid, Chromatography, x1 = 0

`Cc1ccccc1C` [1,2-dimethylbenzene] + CCCCCCCCCC[N+](C)(C)C.O=S(=O)([N-]S(=O)(=O)C(F)(F)F)C(F)(F)F gave an activity coefficient (322.85 K) of 1.03 ± 0.03, an activity coefficient (332.65 K) of 1.07 ± 0.03 and an activity coefficient (343.15 K) of 1.07 ± 0.03.
Compound `Cc1ccccc1C` [1,2-dimethylbenzene] + CCCCCCCC[N+](C)(C)C.O=S(=O)([N-]S(=O)(=O)C(F)(F)F)C(F)(F)F has an activity coefficient (322.85 K) of 1.24 ± 0.04, an activity coefficient (332.65 K) of 1.26 ± 0.04 and an activity coefficient (343.15 K) of 1.25 ± 0.04.
Work on `Cc1ccccc1C` [1,2-dimethylbenzene] + CCCCCCCC[N+](CCCCCCCC)(CCCCCCCC)CCCCCCCC.O=S(=O)([N-]S(=O)(=O)C(F)(F)F)C(F)(F)F yielded an activity coefficient (332.65 K) of 0.57 ± 0.03 and an activity coefficient (343.15 K) of 0.58 ± 0.03.
Work on `Cc1ccccc1C` [1,2-dimethylbenzene] + CCCC[N+](C)(CCCC)CCCC.O=S(=O)([N-]S(=O)(=O)C(F)(F)F)C(F)(F)F yielded an activity coefficient (322.85 K) of 1.38 ± 0.05, an activity coefficient (332.65 K) of 1.46 ± 0.06 and an activity coefficient (343.15 K) of 1.46 ± 0.06.
With `Cc1cccc(C)c1` [1,3-dimethylbenzene] + CCCCCCCCCC[N+](C)(C)C.O=S(=O)([N-]S(=O)(=O)C(F)(F)F)C(F)(F)F the activity coefficient (322.85 K) was 1.11 ± 0.03, the activity coefficient (332.65 K) was 1.14 ± 0.03 and the activity coefficient (343.15 K) was 1.11 ± 0.03.
For `Cc1cccc(C)c1` [1,3-dimethylbenzene] + CCCCCCCC[N+](C)(C)C.O=S(=O)([N-]S(=O)(=O)C(F)(F)F)C(F)(F)F, the activity coefficient (322.85 K) was 1.39 ± 0.05, the activity coefficient (332.65 K) was 1.39 ± 0.05 and the activity coefficient (343.15 K) was 1.38 ± 0.05.
With `Cc1cccc(C)c1` [1,3-dimethylbenzene] + CCCCCCCC[N+](CCCCCCCC)(CCCCCCCC)CCCCCCCC.O=S(=O)([N-]S(=O)(=O)C(F)(F)F)C(F)(F)F the activity coefficient (332.65 K) was 0.6 ± 0.03 and the activity coefficient (343.15 K) was 0.62 ± 0.03.
`Cc1cccc(C)c1` [1,3-dimethylbenzene] + CCCC[N+](C)(CCCC)CCCC.O=S(=O)([N-]S(=O)(=O)C(F)(F)F)C(F)(F)F showed an activity coefficient (322.85 K) of 1.49 ± 0.06, an activity coefficient (332.65 K) of 1.56 ± 0.06 and an activity coefficient (343.15 K) of 1.56 ± 0.06.
`Cc1ccc(C)cc1` [1,4-dimethylbenzene] + CCCCCCCCCC[N+](C)(C)C.O=S(=O)([N-]S(=O)(=O)C(F)(F)F)C(F)(F)F showed an activity coefficient (322.85 K) of 1.12 ± 0.03, an activity coefficient (332.65 K) of 1.15 ± 0.04 and an activity coefficient (343.15 K) of 1.13 ± 0.03.
Work on `Cc1ccc(C)cc1` [1,4-dimethylbenzene] + CCCCCCCC[N+](C)(C)C.O=S(=O)([N-]S(=O)(=O)C(F)(F)F)C(F)(F)F yielded an activity coefficient (322.85 K) of 1.38 ± 0.05, an activity coefficient (332.65 K) of 1.39 ± 0.05 and an activity coefficient (343.15 K) of 1.37 ± 0.05.
`Cc1ccc(C)cc1` [1,4-dimethylbenzene] + CCCCCCCC[N+](CCCCCCCC)(CCCCCCCC)CCCCCCCC.O=S(=O)([N-]S(=O)(=O)C(F)(F)F)C(F)(F)F gave an activity coefficient (332.65 K) of 0.6 ± 0.03 and an activity coefficient (343.15 K) of 0.62 ± 0.03.
`Cc1ccc(C)cc1` [1,4-dimethylbenzene] + CCCC[N+](C)(CCCC)CCCC.O=S(=O)([N-]S(=O)(=O)C(F)(F)F)C(F)(F)F showed an activity coefficient (322.85 K) of 1.51 ± 0.06, an activity coefficient (332.65 K) of 1.62 ± 0.07 and an activity coefficient (343.15 K) of 1.56 ± 0.06.
For `C1COCCO1` [1,4-dioxane] + CCCCCCCCCC[N+](C)(C)C.O=S(=O)([N-]S(=O)(=O)C(F)(F)F)C(F)(F)F, the activity coefficient (322.85 K) was 0.56 ± 0.03, the activity coefficient (332.65 K) was 0.57 ± 0.03 and the activity coefficient (343.15 K) was 0.57 ± 0.03.
`C1COCCO1` [1,4-dioxane] + CCCCCCCC[N+](C)(C)C.O=S(=O)([N-]S(=O)(=O)C(F)(F)F)C(F)(F)F showed an activity coefficient (322.85 K) of 0.62 ± 0.03, an activity coefficient (332.65 K) of 0.62 ± 0.03 and an activity coefficient (343.15 K) of 0.61 ± 0.03.
Work on `C1COCCO1` [1,4-dioxane] + CCCCCCCC[N+](CCCCCCCC)(CCCCCCCC)CCCCCCCC.O=S(=O)([N-]S(=O)(=O)C(F)(F)F)C(F)(F)F yielded an activity coefficient (322.85 K) of 0.47 ± 0.03, an activity coefficient (332.65 K) of 0.47 ± 0.03 and an activity coefficient (343.15 K) of 0.47 ± 0.03.
`C1COCCO1` [1,4-dioxane] + CCCC[N+](C)(CCCC)CCCC.O=S(=O)([N-]S(=O)(=O)C(F)(F)F)C(F)(F)F gave an activity coefficient (322.85 K) of 0.61 ± 0.03, an activity coefficient (332.65 K) of 0.67 ± 0.03 and an activity coefficient (343.15 K) of 0.67 ± 0.03.
In the case of `C#CCCCCC` [1-heptyne] + CCCCCCCCCC[N+](C)(C)C.O=S(=O)([N-]S(=O)(=O)C(F)(F)F)C(F)(F)F, the activity coefficient (322.85 K) is reported as 1.95 ± 0.09, the activity coefficient (332.65 K) is reported as 2.02 ± 0.09 and the activity coefficient (343.15 K) is reported as 1.97 ± 0.09.
Compound `C#CCCCCC` [1-heptyne] + CCCCCCCC[N+](C)(C)C.O=S(=O)([N-]S(=O)(=O)C(F)(F)F)C(F)(F)F has an activity coefficient (322.85 K) of 2.48 ± 0.11, an activity coefficient (332.65 K) of 2.46 ± 0.11 and an activity coefficient (343.15 K) of 2.39 ± 0.11.
With `C#CCCCCC` [1-heptyne] + CCCCCCCC[N+](CCCCCCCC)(CCCCCCCC)CCCCCCCC.O=S(=O)([N-]S(=O)(=O)C(F)(F)F)C(F)(F)F the activity coefficient (322.85 K) was 0.84 ± 0.03, the activity coefficient (332.65 K) was 0.86 ± 0.03 and the activity coefficient (343.15 K) was 0.87 ± 0.03.
Work on `C#CCCCCC` [1-heptyne] + CCCC[N+](C)(CCCC)CCCC.O=S(=O)([N-]S(=O)(=O)C(F)(F)F)C(F)(F)F yielded an activity coefficient (322.85 K) of 2.79 ± 0.13, an activity coefficient (332.65 K) of 2.89 ± 0.13 and an activity coefficient (343.15 K) of 2.85 ± 0.13.
For `C#CCCCC` [1-hexyne] + CCCCCCCCCC[N+](C)(C)C.O=S(=O)([N-]S(=O)(=O)C(F)(F)F)C(F)(F)F, the activity coefficient (322.85 K) was 1.61 ± 0.06, the activity coefficient (332.65 K) was 1.63 ± 0.07 and the activity coefficient (343.15 K) was 1.57 ± 0.06.

— the NIST ThermoML archive (doi:10.1021/je200637v)
